US5210193A, “Piperazine derivatives” (American Cyanamid Company, priority 1990, dated 1993)
In brackets after ≈: the same amount, converted by molar mass. Several values for one entry are separate records, joined by “and”; a condition that tells them apart may be missing. Identical values can stand only once. Counter-ions that a name gives are not always drawn. Like-named read-outs stand apart in the source and are kept apart here.

How the values were obtained:
Experiment in all cases: in vitro antibacterial MIC, agar plate dilution
Assay type in all cases: cell-based
[1] = test system: Staphylococcus epidermidis VGH 84-40; settings: VGH8440, 18 hours, 35° C., read-out: MIC
Method in brief: (§1)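 Agar plate dilution on Mueller-Hinton agar, inoculum approximately 10^4 CFU per organism applied with a Steers replicator. MIC (mcg/ml) is the lowest compound concentration inhibiting visible growth after 18 hours at 35° C.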

[2] = test system: Enterobacter cloacae K 84-10; settings: 35° C.
Method in brief: as §1

[3] = test system: Staphylococcus aureus VGH 84-45; settings: 35° C.
Method in brief: as §1

[4] = test system: Staphylococcus Spp saprophiticus VGH 84-50; settings: 18 hours, 35° C., read-out: MIC
Method in brief: as §1

[5] = test system: Klebsiella oxytoca MOR 84-28; settings: MOR8428, 18 hours, 35° C.
Method in brief: as §1

[6] = test system: Serratia marcescens F 0-35; settings: Serratia marcescens, F035, 18 h, 35° C., read-out: MIC
Method in brief: as §1

[7] = test system: Staphylococcus epidermidis IO 83-58; settings: IO8358, 18 hours, 35° C., read-out: MIC
Method in brief: as §1

[8] = test system: Escherichia coli PRNT 311; settings: PRNT311, 18 hours, 35° C., read-out: MIC
Method in brief: as §1

Escherichia coli NAR 311 = settings: NAR311, 18 hours, 35° C., read-out: MIC
Method in brief: as §1

[9] = test system: Escherichia coli ATCC 25922; settings: 35° C.
Method in brief: as §1

[10] = test system: Escherichia coli CMC 84-16; settings: Escherichia coli, CMC8416, 18 h, 35° C., read-out: MIC
Method in brief: as §1

[11] = test system: Staphylococcus aureus CMC 83-127; settings: Staphylococcus aureus, CMC83127, 18 h, 35° C., read-out: MIC
Method in brief: as §1

[12] = test system: Morganella morganii VGH 84-11; settings: VGH8411, 18 hours, 35° C., read-out: MIC
Method in brief: as §1

[13] = test system: Staphylococcus epidermidis CMC 83-135; settings: CMC83135, 18 hours, 35° C., read-out: MIC
Method in brief: as §1

[14] = test system: Proteus rettgeri CMC 84-41; settings: 35° C.
Method in brief: as §1

[15] = test system: Morganella morganii CMC 84-37; settings: 35° C.
Method in brief: as §1

[16] = test system: Pseudomonas aeruginosa LL-1244; settings: Pseudomonas aeruginosa, LL1244, 18 h, 35° C., read-out: MIC
Method in brief: as §1

[17] = test system: Staphylococcus aureus VGH 84-46; settings: Staphylococcus aureus, VGH8446, 18 h, 35° C., read-out: MIC
Method in brief: as §1

Klebsiella pneumoniae AD = settings: Klebsiella pneumoniae, 18 h, 35° C., read-out: MIC
Method in brief: as §1

[18] = test system: Serratia marcescens K 84-18; settings: 35° C.
Method in brief: as §1

[19] = test system: Escherichia coli CMC 84-11; settings: 35° C.
Method in brief: as §1

[20] = test system: Staphylococcus aureus Smith; settings: 35° C.
Method in brief: as §1

[21] = test system: Streptococcus faecalis VGH 84-65; settings: Enterococcus faecalis, VGH8465, 18 h, 35° C., read-out: MIC
Method in brief: as §1

[22] = test system: Staphylococcus aureus ATTC 29213; settings: 35° C.
Method in brief: as §1

[23] = test system: Staphylococcus aureus CMC 83-128; settings: CMC83128, 18 hours, 35° C., read-out: MIC
Method in brief: as §1

[24] = test system: Klebsiella pneumoniae MOR 84-4; settings: Klebsiella pneumoniae, MOR844, 18 h, 35° C., read-out: MIC
Method in brief: as §1

[25] = test system: Pseudomonas aeruginosa VGH 84-4; settings: Pseudomonas aeruginosa, VGH844, 18 h, 35° C., read-out: MIC
Method in brief: as §1

[26] = test system: Enterobacter aerogenes VGH 84-36; settings: Klebsiella aerogenes, VGH8436, 18 hours, 35° C., read-out: MIC
Method in brief: as §1

[27] = test system: Staphylococcus aureus ATCC 25913; settings: ATCC25913, 18 hours, 35° C.
Method in brief: as §1

[28] = test system: Streptococcus faecalis ATTC 29212; settings: Enterococcus faecalis, ATTC29212, 18 hours, 35° C., read-out: MIC
Method in brief: as §1

[29] = test system: Enterobacter cloacae VGH 84-37; settings: Enterobacter cloacae, VGH8437, 18 h, 35° C., read-out: MIC
Method in brief: as §1

[30] = test system: Enterobacter cloacae MOR 84-30; settings: 18 hours, 35° C., monohydrochloride
Method in brief: as §1

[31] = test system: Pseudomonas aeruginosa VGH 84-3; settings: 18 hours, 35° C., monohydrochloride
Method in brief: as §1

[32] = test system: Serratia marcescens CMC 83-74; settings: 18 hours, 35° C., monohydrochloride
Method in brief: as §1

Escherichia coli LL 311 = settings: Escherichia coli, LL311, 18 h, 35° C., read-out: MIC
Method in brief: as §1

[33] = test system: Pseudomonas aeruginosa CMC 83-20; settings: 18 hours, 35° C., monohydrochloride
Method in brief: as §1

[34] = test system: Serratia marcescens VGH 84-30; settings: Serratia marcescens, VGH8430, 18 h, 35° C., read-out: MIC
Method in brief: as §1

[35] = test system: Pseudomonas aeruginosa K 84-16; settings: 18 hours, 35° C., monohydrochloride
Method in brief: as §1

[36] = test system: Streptococcus faecalis UCI 85-30; settings: 18 hours, 35° C., monohydrochloride
Method in brief: as §1

[37] = test system: Streptococcus faecalis UCI 85-19; settings: 35° C.
Method in brief: as §1

[38] = test system: Morganella morganii CMC 84-38; settings: 18 hours, 35° C., monohydrochloride
Method in brief: as §1

[39] = test system: Serratia marcescens MOR 84-41; settings: 18 hours, 35° C., monohydrochloride
Method in brief: as §1

[40] = test system: Providencia stuarti CMC 83-3; settings: 18 hours, 35° C., monohydrochloride
Method in brief: as §1

[41] = test system: Streptococcus faecalis CMC 83-120; settings: 18 hours, 35° C., monohydrochloride
Method in brief: as §1

[42] = test system: Staphylococcus aureus K 82-26; settings: 18 hours, 35° C., monohydrochloride
Method in brief: as §1

[43] = test system: Staphylococcus aureus CMC 83-131; settings: 18 hours, 35° C., monohydrochloride
Method in brief: as §1

[44] = test system: Enterobacter cloacae VGH 84-39; settings: 18 hours, 35° C., monohydrochloride
Method in brief: as §1

[45] = test system: Escherichia coli VGH 84-19; settings: 18 hours, 35° C., monohydrochloride
Method in brief: as §1

[46] = test system: Klebsiella pneumoniae IO 83-5; settings: 18 hours, 35° C., monohydrochloride
Method in brief: as §1

[47] = test system: Escherichia coli CMC 84-50; settings: 18 hours, 35° C., monohydrochloride
Method in brief: as §1

[48] = test system: Staphylococcus aureus VGH 84-47; settings: 18 hours, 35° C., monohydrochloride
Method in brief: as §1

[49] = test system: Morganella morganii MOR 84-45; settings: 18 hours, 35° C., monohydrochloride
Method in brief: as §1

[50] = test system: Proteus rettgeri IO 83-21; settings: 18 hours, 35° C., monohydrochloride
Method in brief: as §1

[51] = test system: Klebsiella pneumoniae CMC 84-31; settings: 18 hours, 35° C., monohydrochloride
Method in brief: as §1

[52] = test system: Klebsiella pneumoniae MOR 84-24; settings: 18 hours, 35° C., monohydrochloride
Method in brief: as §1

[53] = test system: Escherichia coli MOR 84-20; settings: 18 hours, 35° C., monohydrochloride
Method in brief: as §1

[54] = test system: Morganella morganii VHG 84-12; settings: Morganella morganii VHG 84-12 (VGH 84-12 for Example 131); 18 hours, 35° C.; monohydrochloride
Method in brief: as §1

[55] = test system: Streptococcus faecalis VGH 84-69; settings: 18 hours, 35° C., monohydrochloride
Method in brief: as §1

[56] = Staphylococcus aureus, VGH8445, 18 h, read-out: MIC
[57] = Morganella morganii, CMC8437, 18 h, read-out: MIC
[58] = Staphylococcus aureus, 18 h, read-out: MIC

Compound: CCn1cc(C(=O)O)c(=O)c2cc(F)c(N3CCNC(c4sc5ccccc5c4C)C3)cc21 (stereo not drawn) [Example 22, 1-Ethyl-6-fluoro-1,4-dihydro-7-[3-(3-methylbenzo[b]-thien-2-yl)-1-piperazinyl]-4-oxo-3-quinolinecarboxylic acid]
- MIC [1]: 0.5 µg/mL (≈ 1.07 µM)
- MIC ([2]; Enterobacter cloacae, K8410, 18 h, read-out: MIC): > 256 µg/mL
- MIC [3, 56]: 2 µg/mL (≈ 4.3 µM)
- MIC [4]: 32 µg/mL (≈ 68.7 µM)
- MIC [5]: > 256 µg/mL
- MIC [6]: > 256 µg/mL
- MIC [7]: 8 µg/mL (≈ 17.2 µM)
- MIC [8]: > 256 µg/mL
- MIC (Escherichia coli NAR 311): > 256 µg/mL
- MIC ([9]; Escherichia coli, ATCC25922, 18 h, read-out: MIC): > 256 µg/mL
- MIC [10]: > 256 µg/mL
- MIC [11]: 0.5 µg/mL (≈ 1.07 µM)
- MIC [12]: 256 µg/mL (≈ 550 µM)
- MIC [13]: 2 µg/mL (≈ 4.3 µM)
- MIC ([14]; Providencia rettgeri, CMC8441, 18 h, read-out: MIC): 256 µg/mL (≈ 550 µM)
- MIC [15, 57]: 256 µg/mL (≈ 550 µM)
- MIC [16]: > 256 µg/mL
- MIC [17]: 2 µg/mL (≈ 4.3 µM)
- MIC (Klebsiella pneumoniae AD): > 256 µg/mL
- MIC ([18]; Serratia marcescens, K8418, 18 h, read-out: MIC): > 256 µg/mL
- MIC ([19]; Escherichia coli, CMC8411, 18 h, read-out: MIC): > 256 µg/mL
- MIC [20, 58]: 2 µg/mL (≈ 4.3 µM)
- MIC [21]: 256 µg/mL (≈ 550 µM)
- MIC ([22]; Staphylococcus aureus, ATTC29213, 18 h, read-out: MIC): 4 µg/mL (≈ 8.59 µM)
- MIC [23]: 4 µg/mL (≈ 8.59 µM)
- MIC [24]: > 256 µg/mL
- MIC [25]: > 256 µg/mL
- MIC [26]: > 256 µg/mL
- MIC [27]: 4 µg/mL (≈ 8.59 µM)
- MIC [28]: 256 µg/mL (≈ 550 µM)
- MIC [29]: > 256 µg/mL

Compound: O=C(O)c1cn(C2CC2)c2cc(N3CCNC(c4ccco4)C3)c(F)cc2c1=O (stereo not drawn) [Example 99, 1-Cyclopropyl-6-fluoro-1,4-dihydro-4-oxo-7-[3-(2-furanyl) -1-piperazinyl-3-quinolinecarboxylic acid, monohydrochloride]
- MIC ([2]; 18 hours, monohydrochloride): 0.06 µg/mL
- MIC [3, 56]: < 0.015 µg/mL
- MIC [30]: 0.25 µg/mL
- MIC [31]: 16 µg/mL
- MIC ([9]; 18 hours, monohydrochloride): 0.06 µg/mL and 0.12 µg/mL
- MIC [32]: 8 µg/mL
- MIC ([14]; 18 hours, monohydrochloride): 0.12 µg/mL
- MIC [15, 57]: 0.12 µg/mL
- MIC [16]: 4 µg/mL
- MIC (Escherichia coli LL 311): 0.03 µg/mL
- MIC [33]: 4 µg/mL
- MIC ([18]; 18 hours, monohydrochloride): 0.5 µg/mL
- MIC [34]: 8 µg/mL
- MIC [35]: 4 µg/mL
- MIC [20, 58]: < 0.015 µg/mL
- MIC [21]: 0.5 µg/mL
- MIC [36]: 0.5 µg/mL
- MIC ([22]; 18 hours, monohydrochloride): 0.03 µg/mL
- MIC ([37]; Enterococcus faecalis, UCI8519, 18 h, read-out: MIC): 0.5 µg/mL
- MIC [38]: 0.12 µg/mL
- MIC [39]: 0.25 µg/mL
- MIC [25]: 2 µg/mL
- MIC [40]: 8 µg/mL
- MIC [41]: 0.5 µg/mL
- MIC [42]: 0.03 µg/mL

Compound: O=C(O)c1cn(C2CC2)c2cc(N3CCNC(c4ccccn4)C3)c(F)cc2c1=O (stereo not drawn) [Example 129, 1-Cyclopropyl-6-fluoro-1,4-dihydro-4-oxo-7-[3-(2-pyridinyl) -1-piperazinyl]-3-quinolinecarboxylic acid, monohydrochloride]
- MIC ([3]; 18 hours, monohydrochloride): 0.03 µg/mL
- MIC [30]: 0.5 µg/mL
- MIC [43]: 0.25 µg/mL
- MIC [44]: 0.25 µg/mL
- MIC [45]: 0.12 µg/mL
- MIC ([9]; 18 hours, monohydrochloride): 0.03 µg/mL and 0.06 µg/mL
- MIC [32]: 16 µg/mL
- MIC ([15]; 18 hours, monohydrochloride): 0.12 µg/mL
- MIC [46]: 0.5 µg/mL
- MIC ([18]; 18 hours, monohydrochloride): 0.25 µg/mL
- MIC ([19]; 18 hours, monohydrochloride): 0.03 µg/mL
- MIC ([20]; 18 hours, monohydrochloride): 0.03 µg/mL
- MIC [47]: 0.25 µg/mL
- MIC [48]: 0.12 µg/mL
- MIC [49]: 0.25 µg/mL
- MIC [50]: 0.5 µg/mL
- MIC [36]: 4 µg/mL
- MIC [51]: 0.25 µg/mL
- MIC [52]: 0.5 µg/mL
- MIC ([37]; 18 hours): 2 µg/mL
- MIC [53]: 0.12 µg/mL
- MIC [38]: 0.25 µg/mL
- MIC [39]: 0.5 µg/mL
- MIC [54]: 0.5 µg/mL
- MIC [40]: 16 µg/mL
- MIC [41]: 2 µg/mL
- MIC [55]: 2 µg/mL
- MIC [42]: 2 µg/mL
